Test system: MDA-MB-231
Test: Apoptosis analysis, Annexin V-FITC/PI FACS
Assay type: cell-based
Conditions: MDA-MB-231, 10 μM, 4 h, extrapolated from Fig. 10B
Description: Apoptosis is a common cell death pathway for chemotherapeutics which can be characterized by distinct morphological features and biochemical mechanisms.[88,89] Apoptosis occurs normally in healthy cells to maintain a healthy population of cells during aging or development of tissues. Some transition metal-based drugs can trigger apoptosis due to […] of p53 dependant pathway (a tumour suppressor gene).[90,91] Populations of apoptotic cells can be determined by containing cells with Annexin V and PI.[92,93] Cells undergoing apoptosis contain ample amount of phosphatidylserine (PS) which can be bound by Annexin V. The Annexin is then labelled with FITC, a green fluorogenic dye which can be visualized by fluorescence activated cell sorting (FACS). PI is used to stain damaged DNA to distinguish apoptotic from necrotic cells. […]
media. […] The plates were read using a Genios plate reader (λ = 570 nm). […]
Cell Viability of 1a-1e and 2a-2e (Suspended Cell Lines). The cell viability of 2a was determined in K562. […]
10% CO 2. […] To each designated well was then added 20 µL of CellTiter-Glo solution and orbitally shaken for 5 minutes and the luminescence (1000 ms integration and 150 ms gain) acquired on a Genios plate reader. […]

C[N+](C)=C1[S][Au-2]2([S]1)[c]1ccccc1Cc1cccc[n+]12.F[P-](F)(F)(F)(F)F (stereo not shown) [2a]
Increase in apoptotic cells in comparison to control: 36%

— paper PMC8162438, “Cancer cell-selective modulation of mitochondrial respiration and metabolism by potent organogold(III) dithiocarbamates” (Chemical Science, 2020)
